From patent US20230233569A1 (Revolution Medicines, Inc., priority 2020, published 2023)
Where “and” joins values, the source holds several entries; their conditions need not be identical. Equal entries are not always repeated.

Key:
Experiment in all cases: Disruption of BRAF RBD interaction with Ras (FRET / MOA assay, with Cyclophilin A)
Assay type in all cases: biochemical
NRAS Q61K = NRAS Q61K (Homo sapiens, UniProt P01111+P62937, Q61K); conditions: NRAS Q61K; read-out: NRAS Q61K FRET data IC50
Excerpt: (§1) Disruption of B-Raf Ras-Binding Domain (BRAF^RBD) Interaction with K-Ras by Compounds of the Invention (Also Called a FRET Assay or an MOA Assay)
(§2) Note—The following protocol describes a procedure for monitoring disruption of K-Ras G12C (GMP-PNP) binding to BRAF^RBD by a compound of the invention. This protocol may also be executed substituting other Ras proteins or nucleotides.
(§3) The purpose of this biochemical assay was to measure the ability of test compounds to facilitate ternary complex formation between a nucleotide-loaded K-Ras isoform and Cyclophilin A; the resulting ternary complex disrupts binding to a BRAF^RBD construct, inhibiting K-Ras signaling through a RAF effector. Data is reported as IC50 values.
(§4) In assay buffer containing 25 mM HEPES pH 7.3, 0.002% Tween20, 0.1% BSA, 100 mM NaCl and 5 mM MgCl2, tagless Cyclophilin A, His6-K-Ras-GMPPNP, and GST-BRAF^RBD were combined in a 384-well assay plate at final concentrations of 25 μM, 12.5 nM and 50 nM, respectively. Compound was present in plate wells as a 10-point 3-fold dilution series starting at a final concentration of 30 μM. After incubation at 25° C. for 3 hours, a mixture of Anti-His Eu-W1024 and anti-GST allophycocyanin was then added to assay sample wells at final concentrations of 10 nM and 50 nM, respectively, and the reaction incubated for an additional 1.5 hours. […] Compounds that facilitate disruption of a K-Ras:RAF complex were identified as those eliciting a decrease in the TR-FRET ratio relative to DMSO control wells.
as §3, with “BRAF^RBDD” for “BRAF^RBD”

KRAS Q61H = KRAS Q61H (Homo sapiens, UniProt P01116+P62937, Q61H); conditions: KRAS Q61H; read-out: KRAS Q61H FRET data IC50
Excerpt: as §1, §2, §3, §4
as §3, with “BRAF^RBDD” for “BRAF^RBD”

NRAS Q61R = NRAS Q61R (Homo sapiens, UniProt P01111+P62937, Q61R); conditions: NRAS Q61R; read-out: NRAS Q61R FRET data IC50
Excerpt: as §1, §2, §3, §4
as §3, with “BRAF^RBDD” for “BRAF^RBD”

KRAS G12V = KRAS G12V (Homo sapiens, UniProt P01116+P62937, G12V); conditions: KRAS G12V; read-out: KRAS G12V FRET data IC50
In short: (§5)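 TR-FRET readout: a drop in ratio relative to DMSO wells marks disruption of the K-Ras:BRAF RBD complex via compound-induced K-Ras–Cyclophilin A ternary complex. Dosing used ten 3-fold steps from 30 μM final, 3 h at 25 °C, then Eu-anti-His 10 nM plus APC-anti-GST 50 nM for another 1.5 h. Values are IC50s.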

KRAS G13C = KRAS G13C (Homo sapiens, UniProt P01116+P62937, G13C); conditions: KRAS G13C; read-out: KRAS G13C FRET data IC50
In short: as §5

KRAS G12S = KRAS G12S (Homo sapiens, UniProt P01116+P62937, G12S); conditions: read-out: KRAS G12S FRET data, IC50
In short: as §5

KRAS G12D = KRAS G12D (Homo sapiens, UniProt P01116+P62937, G12D); conditions: read-out: KRAS G12D FRET data, IC50
In short: as §5

KRAS G12C = KRAS G12C (Homo sapiens, UniProt P01116+P62937, G12C); conditions: KRAS G12C; read-out: KRAS G12C FRET data IC50
In short: as §5

KRAS WT = KRAS WT (Homo sapiens, UniProt P01116+P62937); conditions: KRAS WT; read-out: KRAS WT FRET data IC50
In short: as §5

Sequence of KRAS G12S (P01116 1-169 isoform P01116-2 G12S limits assumed): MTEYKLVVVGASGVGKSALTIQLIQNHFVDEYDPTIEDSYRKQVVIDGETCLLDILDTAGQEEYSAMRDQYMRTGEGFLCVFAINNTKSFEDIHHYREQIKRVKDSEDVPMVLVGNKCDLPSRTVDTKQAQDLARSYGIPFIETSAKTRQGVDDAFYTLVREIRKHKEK
Sequence of KRAS G12S (P62937 whole entry): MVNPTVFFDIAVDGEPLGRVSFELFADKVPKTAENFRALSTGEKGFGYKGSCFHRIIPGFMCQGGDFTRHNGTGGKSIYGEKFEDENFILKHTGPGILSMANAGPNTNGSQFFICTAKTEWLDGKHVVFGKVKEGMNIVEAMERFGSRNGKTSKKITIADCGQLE
Sequence of KRAS G12C (P01116 1-169 isoform P01116-2 G12C): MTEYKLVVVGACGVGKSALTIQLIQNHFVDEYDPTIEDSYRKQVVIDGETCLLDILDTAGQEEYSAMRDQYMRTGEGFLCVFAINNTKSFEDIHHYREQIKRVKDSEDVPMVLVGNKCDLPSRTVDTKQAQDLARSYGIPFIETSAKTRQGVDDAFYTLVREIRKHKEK
Sequence of KRAS G12C (P62937 whole entry): as the sequence (P62937 whole entry) above
Sequence of KRAS WT (P01116 1-169 isoform P01116-2 limits assumed): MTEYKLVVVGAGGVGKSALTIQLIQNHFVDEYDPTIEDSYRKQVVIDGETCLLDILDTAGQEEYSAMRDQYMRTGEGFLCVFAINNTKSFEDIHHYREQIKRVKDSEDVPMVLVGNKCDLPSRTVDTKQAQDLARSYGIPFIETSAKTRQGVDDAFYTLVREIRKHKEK
Sequence of KRAS WT (P62937 whole entry): as the sequence (P62937 whole entry) above
Sequence of KRAS G13C (P01116 1-169 isoform P01116-2 G13C): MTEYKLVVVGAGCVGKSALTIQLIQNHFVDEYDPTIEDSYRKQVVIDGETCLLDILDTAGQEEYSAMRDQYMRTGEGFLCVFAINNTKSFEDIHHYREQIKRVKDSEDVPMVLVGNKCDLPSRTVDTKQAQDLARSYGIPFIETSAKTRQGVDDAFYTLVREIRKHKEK
Sequence of KRAS G13C (P62937 whole entry): as the sequence (P62937 whole entry) above
Sequence of KRAS Q61H (P01116 1-169 isoform P01116-2 Q61H limits assumed): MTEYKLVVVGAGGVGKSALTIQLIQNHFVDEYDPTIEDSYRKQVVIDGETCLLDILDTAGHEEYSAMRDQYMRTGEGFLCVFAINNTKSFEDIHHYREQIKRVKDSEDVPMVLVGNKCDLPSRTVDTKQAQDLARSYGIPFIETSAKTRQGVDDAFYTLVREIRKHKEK
Sequence of KRAS Q61H (P62937 whole entry): as the sequence (P62937 whole entry) above
Sequence of NRAS Q61R (P01111 whole entry Q61R): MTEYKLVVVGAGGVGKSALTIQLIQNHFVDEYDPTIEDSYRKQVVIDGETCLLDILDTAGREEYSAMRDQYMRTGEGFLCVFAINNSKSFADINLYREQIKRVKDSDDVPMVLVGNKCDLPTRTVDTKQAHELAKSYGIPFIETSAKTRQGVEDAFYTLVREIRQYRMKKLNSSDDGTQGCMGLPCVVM
Sequence of NRAS Q61R (P62937 whole entry): as the sequence (P62937 whole entry) above
Sequence of KRAS G12D (P01116 1-169 isoform P01116-2 G12D limits assumed): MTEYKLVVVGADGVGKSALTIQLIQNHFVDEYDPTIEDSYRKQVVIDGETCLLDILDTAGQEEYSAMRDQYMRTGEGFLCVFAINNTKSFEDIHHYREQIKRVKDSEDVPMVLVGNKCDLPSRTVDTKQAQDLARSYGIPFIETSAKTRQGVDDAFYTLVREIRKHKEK
Sequence of KRAS G12D (P62937 whole entry): as the sequence (P62937 whole entry) above
Sequence of KRAS G12V (P01116 1-169 isoform P01116-2 G12V limits assumed): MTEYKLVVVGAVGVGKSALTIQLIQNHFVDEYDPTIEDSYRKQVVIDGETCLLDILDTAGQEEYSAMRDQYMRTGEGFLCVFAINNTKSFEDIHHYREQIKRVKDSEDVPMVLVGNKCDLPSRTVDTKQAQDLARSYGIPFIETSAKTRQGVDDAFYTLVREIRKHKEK
Sequence of KRAS G12V (P62937 whole entry): as the sequence (P62937 whole entry) above
Sequence of NRAS Q61K (P01111 whole entry Q61K, the tested form may be a part): as the sequence (P01111 whole entry Q61R) above, with R61K counted along it
Sequence of NRAS Q61K (P62937 whole entry, the tested form may be a part): as the sequence (P62937 whole entry) above

Compound	IC50 (NRAS Q61K) [µM]	IC50 (KRAS Q61H) [µM]	IC50 (NRAS Q61R) [µM]	IC50 (KRAS G12V) [µM]	IC50 (KRAS G13C) [µM]	IC50 (KRAS G12S)	IC50 (KRAS G12D) [µM]	IC50 (KRAS G12C) [µM]	IC50 (KRAS WT) [µM]
CCn1c(-c2cccnc2[C@H](C)OC)c2c3cc(ccc31)-c1csc(n1)C[C@H](NC(=O)[C@H](C(C)C)N(C)C(=O)N1CC3(CN(C)C3)C1)C(=O)N1CCC[C@H](N1)C(=O)OCC(C)(C)C2 (atropisomer, axis not shown) [Example A268]	0.01 to 0.1	0.01 to 0.1	–	–	–	–	–	–	–
C=CC(=O)N1CC[C@H](C(=O)N(C)[C@H](C(=O)N[C@H]2Cc3cc(O)cc(c3)-c3ccc4c(c3)c(c(-c3ccccc3[C@H](C)OC)n4CC)CC(C)(C)COC(=O)[C@@H]3CCCN(N3)C2=O)C(C)C)C1 [Example A022]	0.1 to 1	0.01 to 0.1	0.1 to 1	0.1 to 1	0.1 to 1	0.1 to 1 µM	1 to 10	0.01 to 0.1	0.1 to 1
C=CC(=O)N1CC[C@H](C(=O)N(C)[C@H](C(=O)N[C@H]2Cc3cc(O)cc(c3)-c3ccc4c(c3)c(c(-c3c(F)cccc3CCOC)n4CC)CC(C)(C)COC(=O)[C@@H]3CCCN(N3)C2=O)C(C)C)C1 [Example A025]	1 to 10	1 to 10	> 10	1 to 10	1 to 10	1 to 10 µM	> 10	0.1 to 1	1 to 10
C=CC(=O)N1CC[C@H](C(=O)N(C)[C@H](C(=O)N[C@H]2Cc3cc(O)cc(c3)-c3ccc4c(c3)c(c(-c3ccccc3N3CCOCC3)n4CC)CC(C)(C)COC(=O)[C@@H]3CCCN(N3)C2=O)C(C)C)C1 [Example A026]	> 10	1 to 10	> 10	> 10	> 10	> 10 µM	> 10	0.1 to 1	> 10
C=CC(=O)N1CC[C@H](C(=O)N(C)[C@H](C(=O)N[C@H]2Cc3cc(O)cc(c3)-c3ccc4c(c3)c(c(-c3cccnc3)n4CC)CC(C)(C)COC(=O)[C@@H]3CCCN(N3)C2=O)C(C)C)C1 [Example A045]	1 to 10	0.1 to 1	> 10	1 to 10	1 to 10	1 to 10 µM	> 10	0.1 to 1	1 to 10
C=CC(=O)N1CC[C@H](C(=O)N(C)[C@H](C(=O)N[C@H]2Cc3cc(O)cc(c3)-c3cc(F)c4c(c3)c(c(-c3ccccc3CCOC)n4CC)CC(C)(C)COC(=O)[C@@H]3CCCN(N3)C2=O)C(C)C)C1 [Example A053]	> 10	1 to 10	> 10	> 10	> 10	1 to 10 µM and > 10 µM	> 10	0.1 to 1	> 10
C=CC(=O)N1CC[C@H](C(=O)N(C)[C@H](C(=O)N[C@H]2Cc3cc(O)cc(c3)-c3ccc4c(c3)c(c(-c3cccnc3N3CC(OC)C3)n4CC)CC(C)(C)COC(=O)[C@@H]3CCCN(N3)C2=O)C(C)C)C1 [Example A060]	1 to 10	1 to 10	> 10	1 to 10	1 to 10	1 to 10 µM	> 10	0.1 to 1	> 10
C=CC(=O)N1CC[C@H](C(=O)N(C)[C@H](C(=O)N[C@H]2Cc3cc(O)cc(c3)-c3ccc4c(c3)c(c(-c3cncnc3)n4CC)CC(C)(C)COC(=O)[C@@H]3CCCN(N3)C2=O)C(C)C)C1 [Example A061]	1 to 10	1 to 10	> 10	1 to 10	1 to 10	1 to 10 µM	> 10	0.1 to 1	1 to 10
C=CC(=O)N1CC[C@H](C(=O)N(C)[C@H](C(=O)N[C@H]2Cc3cc(O)cc(c3)-c3ccc4c(c3)c(c(C3=C(COC)CCCC3)n4CC)CC(C)(C)COC(=O)[C@@H]3CCCN(N3)C2=O)C(C)C)C1 [Example A064]	1 to 10	0.1 to 1	1 to 10	1 to 10	1 to 10	0.1 to 1 µM	> 10	0.01 to 0.1	1 to 10
C=CC(=O)N1CC[C@H](C(=O)N(C)[C@H](C(=O)N[C@H]2Cc3cc(O)cc(c3)-c3ccc4c(c3)c(c(-c3cccnc3)n4C(C)(C)C#N)CC(C)(C)COC(=O)[C@@H]3CCCN(N3)C2=O)C(C)C)C1 [Example A074]	–	0.1 to 1	1 to 10	–	0.1 to 1	–	–	–	–
C=CC(=O)N1CC[C@H](C(=O)N(C)[C@H](C(=O)N[C@H]2Cc3cc(O)cc(c3)-c3ccc4c(c3)c(c(-c3cnccc3C)n4CC)CC(C)(C)COC(=O)[C@@H]3CCCN(N3)C2=O)C(C)C)C1 [Example A077]	0.1 to 1	0.01 to 0.1	1 to 10	0.1 to 1	0.1 to 1	0.1 to 1 µM	1 to 10	0.01 to 0.1	0.1 to 1
C=CC(=O)N1CC[C@H](C(=O)N(C)[C@H](C(=O)N[C@H]2Cc3cc(O)cc(c3)-c3ccc4c(c3)c(c(-c3c(CCOC)cccc3OC)n4CC)CC(C)(C)COC(=O)[C@@H]3CCCN(N3)C2=O)C(C)C)C1 [Example A080]	1 to 10	1 to 10	> 10	1 to 10	> 10	> 10 µM	> 10	0.1 to 1	> 10
C=CC(=O)N1CC[C@H](C(=O)N(C)[C@H](C(=O)N[C@H]2Cc3cc(O)cc(c3)-c3ccc4c(c3)c(c(-c3cc(F)cnc3COC)n4CC)CC(C)(C)COC(=O)[C@@H]3CCCN(N3)C2=O)C(C)C)C1 [Example A082]	0.1 to 1	0.01 to 0.1	0.1 to 1	0.1 to 1	0.1 to 1	0.1 to 1 µM	1 to 10	0.01 to 0.1	0.1 to 1
C=CC(=O)N1CC[C@H](C(=O)N(C)[C@H](C(=O)N[C@H]2Cc3cc(O)cc(c3)-c3ccc4c(c3)c(c(-c3cncc(COC)c3)n4CC)CC(C)(C)COC(=O)[C@@H]3CCCN(N3)C2=O)C(C)C)C1 [Example A083]	1 to 10	0.1 to 1	1 to 10	1 to 10	1 to 10	0.1 to 1 µM	> 10	0.01 to 0.1	1 to 10
C=CC(=O)N1CC[C@H](C(=O)N(C)[C@H](C(=O)N[C@H]2Cc3cc(O)cc(c3)-c3ccc4c(c3)c(c(-c3nccnc3COC)n4CC)CC(C)(C)COC(=O)[C@@H]3CCCN(N3)C2=O)C(C)C)C1 [Example A085]	> 10	1 to 10	> 10	> 10	> 10	> 10 µM	> 10	1 to 10	> 10
C=CC(=O)N1CC[C@H](C(=O)N(C)[C@H](C(=O)N[C@H]2Cc3cc(O)cc(c3)-c3ccc4c(c3)c(c(-c3ccncc3)n4C(C)(C)C#N)CC(C)(C)COC(=O)[C@@H]3CCCN(N3)C2=O)C(C)C)C1 [Example A086]	0.1 to 1	0.1 to 1	1 to 10	0.1 to 1	0.1 to 1	0.1 to 1 µM	1 to 10	0.01 to 0.1	1 to 10
